Here are results for 39 compounds from BindingDB's records for patent US11547697 (Millennium Pharmaceuticals, 2023).

What all share (assay): Inhibition Assay of PI3K
In assay [1] the target is Phosphatidylinositol 4,5-bisphosphate 3-kinase catalytic subunit beta isoform (Homo sapiens, UniProt P42338).
Method: (§1) An exemplary system is PI 3-Kinase (human) HTRF Assay from Upstate. […] Briefly, the assay is a time resolved FRET assay that indirectly measures PIP3 product formed by the activity of a PI3-K. The kinase reaction is performed in a microtitre plate (e.g., a 384 well microtitre plate). The total reaction volume is approximately 20 ul per well. In the first step, each well receives 2 ul of test compound in 20% dimethylsulphoxide resulting in a 2% DMSO final concentration. Next, approximately 14.5 ul of a kinase/PIP2 mixture (diluted in 1× reaction buffer) is added per well for a final concentration of 0.25-0.3 ug/ml kinase and 10 μM PIP2. The plate is sealed and incubated for 15 minutes at room temperature. To start the reaction, 3.5 ul of ATP (diluted in 1× reaction buffer) is added per well for a final concentration of 10 μM ATP. The plate is sealed and incubated for 1 hour at room temperature. The reaction is stopped by adding 5 ul of Stop Solution per well and then 5 ul of Detection Mix is added per well. The plate is sealed, incubated for 1 hour at room temperature, and then read on an appropriate plate reader.
Assay [2] concerns the target T1, Phosphatidylinositol 4,5-bisphosphate 3-kinase catalytic subunit delta isoform (Homo sapiens, UniProt O00329).
T1 sequence (O00329 whole entry): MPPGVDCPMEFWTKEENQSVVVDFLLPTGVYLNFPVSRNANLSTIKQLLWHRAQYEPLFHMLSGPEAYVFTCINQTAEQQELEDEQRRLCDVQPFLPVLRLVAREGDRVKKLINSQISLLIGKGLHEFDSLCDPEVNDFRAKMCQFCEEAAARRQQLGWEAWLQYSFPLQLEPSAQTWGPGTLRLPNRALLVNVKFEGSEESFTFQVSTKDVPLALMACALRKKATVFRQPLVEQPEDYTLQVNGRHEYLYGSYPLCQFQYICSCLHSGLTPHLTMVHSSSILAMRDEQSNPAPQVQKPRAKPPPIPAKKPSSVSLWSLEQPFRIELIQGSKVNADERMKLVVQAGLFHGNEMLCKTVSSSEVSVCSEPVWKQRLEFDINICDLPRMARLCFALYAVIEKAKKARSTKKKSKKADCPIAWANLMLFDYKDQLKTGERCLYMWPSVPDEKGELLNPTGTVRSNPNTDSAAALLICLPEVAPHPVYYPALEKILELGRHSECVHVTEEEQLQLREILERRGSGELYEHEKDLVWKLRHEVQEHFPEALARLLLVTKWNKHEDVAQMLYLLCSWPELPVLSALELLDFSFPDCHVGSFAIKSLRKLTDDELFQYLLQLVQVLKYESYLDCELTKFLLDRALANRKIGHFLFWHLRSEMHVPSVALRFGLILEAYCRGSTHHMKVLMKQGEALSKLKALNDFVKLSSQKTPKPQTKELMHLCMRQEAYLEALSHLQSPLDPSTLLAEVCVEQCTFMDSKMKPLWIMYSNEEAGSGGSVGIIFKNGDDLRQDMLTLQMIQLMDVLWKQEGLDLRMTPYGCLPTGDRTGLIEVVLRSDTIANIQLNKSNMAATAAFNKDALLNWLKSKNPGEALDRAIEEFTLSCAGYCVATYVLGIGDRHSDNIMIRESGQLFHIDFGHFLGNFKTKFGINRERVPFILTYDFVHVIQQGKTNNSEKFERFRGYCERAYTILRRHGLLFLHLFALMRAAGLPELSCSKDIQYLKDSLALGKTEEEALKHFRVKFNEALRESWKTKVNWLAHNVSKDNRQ
Method: as §1

Assay [3] addresses Phosphatidylinositol 4,5-bisphosphate 3-kinase catalytic subunit gamma isoform (Homo sapiens, UniProt P48736).
Method: as §1

Phosphatidylinositol 4,5-bisphosphate 3-kinase catalytic subunit beta isoform, sequence (P42338 whole entry, canonical isoform): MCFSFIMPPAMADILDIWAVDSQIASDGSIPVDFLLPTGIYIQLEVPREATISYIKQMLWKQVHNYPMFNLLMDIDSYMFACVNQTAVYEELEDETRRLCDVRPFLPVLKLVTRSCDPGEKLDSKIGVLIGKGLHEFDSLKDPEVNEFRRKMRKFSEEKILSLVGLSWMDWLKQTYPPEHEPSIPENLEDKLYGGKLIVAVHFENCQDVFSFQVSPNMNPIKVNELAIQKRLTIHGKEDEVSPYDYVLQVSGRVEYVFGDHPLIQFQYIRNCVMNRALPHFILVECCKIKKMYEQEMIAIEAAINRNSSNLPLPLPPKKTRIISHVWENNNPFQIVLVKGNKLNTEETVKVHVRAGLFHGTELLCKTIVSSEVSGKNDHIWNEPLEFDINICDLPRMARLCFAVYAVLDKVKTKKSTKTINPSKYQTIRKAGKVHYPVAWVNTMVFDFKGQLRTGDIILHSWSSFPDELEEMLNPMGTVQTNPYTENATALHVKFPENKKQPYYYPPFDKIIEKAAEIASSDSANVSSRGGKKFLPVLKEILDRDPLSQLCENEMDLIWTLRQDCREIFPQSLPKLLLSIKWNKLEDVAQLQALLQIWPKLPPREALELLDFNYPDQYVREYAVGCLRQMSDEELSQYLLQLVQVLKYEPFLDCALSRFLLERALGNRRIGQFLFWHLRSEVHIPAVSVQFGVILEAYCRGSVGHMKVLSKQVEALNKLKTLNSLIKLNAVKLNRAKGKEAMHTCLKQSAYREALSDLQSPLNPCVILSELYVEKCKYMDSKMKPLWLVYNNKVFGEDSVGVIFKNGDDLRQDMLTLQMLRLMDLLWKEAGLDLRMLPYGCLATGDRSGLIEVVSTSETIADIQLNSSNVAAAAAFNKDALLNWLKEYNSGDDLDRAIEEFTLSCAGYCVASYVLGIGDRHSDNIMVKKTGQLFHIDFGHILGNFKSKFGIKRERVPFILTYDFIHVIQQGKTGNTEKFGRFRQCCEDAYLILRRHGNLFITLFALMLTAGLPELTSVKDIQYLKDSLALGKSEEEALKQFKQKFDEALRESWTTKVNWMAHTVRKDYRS
Phosphatidylinositol 4,5-bisphosphate 3-kinase catalytic subunit gamma isoform, sequence (P48736 whole entry, canonical isoform): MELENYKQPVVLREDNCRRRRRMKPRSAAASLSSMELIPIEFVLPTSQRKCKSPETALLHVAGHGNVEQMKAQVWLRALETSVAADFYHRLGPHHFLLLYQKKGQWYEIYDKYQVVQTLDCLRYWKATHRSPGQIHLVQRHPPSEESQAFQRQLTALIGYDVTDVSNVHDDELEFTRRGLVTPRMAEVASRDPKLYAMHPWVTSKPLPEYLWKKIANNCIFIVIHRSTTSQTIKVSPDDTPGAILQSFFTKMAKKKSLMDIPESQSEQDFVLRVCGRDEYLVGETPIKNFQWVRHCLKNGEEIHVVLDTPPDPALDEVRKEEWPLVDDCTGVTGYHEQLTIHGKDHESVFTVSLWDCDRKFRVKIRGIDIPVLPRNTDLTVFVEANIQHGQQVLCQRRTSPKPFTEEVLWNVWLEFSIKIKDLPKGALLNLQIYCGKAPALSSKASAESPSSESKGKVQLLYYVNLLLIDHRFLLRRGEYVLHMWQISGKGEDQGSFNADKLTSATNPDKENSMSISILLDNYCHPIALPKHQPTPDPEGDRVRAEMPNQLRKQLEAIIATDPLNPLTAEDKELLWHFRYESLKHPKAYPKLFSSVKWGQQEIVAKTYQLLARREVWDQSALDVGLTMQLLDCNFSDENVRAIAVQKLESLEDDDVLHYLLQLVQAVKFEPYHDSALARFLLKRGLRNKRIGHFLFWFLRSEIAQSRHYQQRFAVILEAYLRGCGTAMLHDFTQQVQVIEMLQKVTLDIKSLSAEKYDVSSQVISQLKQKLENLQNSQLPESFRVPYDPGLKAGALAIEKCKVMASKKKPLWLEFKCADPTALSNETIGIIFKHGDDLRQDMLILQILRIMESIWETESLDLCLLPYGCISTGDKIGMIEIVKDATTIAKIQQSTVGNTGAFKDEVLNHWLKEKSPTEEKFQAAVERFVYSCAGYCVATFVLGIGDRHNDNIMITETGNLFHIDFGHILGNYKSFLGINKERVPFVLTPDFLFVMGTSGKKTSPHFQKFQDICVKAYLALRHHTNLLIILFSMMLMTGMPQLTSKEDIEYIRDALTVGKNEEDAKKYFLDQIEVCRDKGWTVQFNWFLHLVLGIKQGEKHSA

Turning to `Nc1nc2cc(-c3ccc4ncn(C5CCOCC5)c4c3)ccc2o1` [US11547697, Compound 48], the IC50 in assay [1], in assay [2] and in assay [3] was over 10 µM in each case.
For `Nc1nc2cc(-c3ccc4ncc(N5CCOCC5)n4c3)ccc2o1` [US11547697, Compound 53], the IC50 in assay [1], in assay [2] and in assay [3] was over 10 µM in each case.
In the case of `Nc1nc2ccc(-c3ccc4ncn(C5CCOCC5)c(=O)c4c3)cc2o1` [US11547697, Compound 63], the IC50 in assay [1], in assay [2] and in assay [3] was over 10 µM each time.
Consider `CN1CCN(c2nc3cc(-c4ccc5oc(N)nc5c4)ccc3c(=O)n2C)CC1` [US11547697, Compound 79], for which the 50% inhibitory concentration (IC50) in assay [1], in assay [2] and in assay [3] was over 10 µM throughout.
`Cn1c(N2CCOCC2)nc2cc(-c3ccc4oc(N)nc4c3)ccc2c1=O` [US11547697, Compound 80]: the 50% inhibitory concentration (IC50) in assay [1], in assay [2] and in assay [3] was over 10 µM in each case.
On to `Nc1nc2cc(-c3ccc4ncc(C(=O)N5CCOCC5)cc4c3)ccc2o1` [US11547697, Compound 97], for which the concentration for half-maximal inhibition (IC50) in assay [1], in assay [2] and in assay [3] was over 10 µM throughout.
In the case of `CN1CCN(C(=O)c2cnc3cnc(-c4ccc5oc(N)nc5c4)cn23)CC1` [US11547697, Compound 123], the concentration for half-maximal inhibition (IC50) in assay [1], in assay [2] and in assay [3] was over 10 µM throughout.
Regarding `CC1CN(C(=O)c2cnc3ccc(-c4ccc5oc(N)nc5c4)cn23)CC(C)N1` (centres undefined) [US11547697, Compound 142], the IC50 in assay [1], in assay [2] and in assay [3] was over 10 µM each time.
On to `Nc1nc2cc(-c3ccc4ncc(-c5ccnc(N6CCOCC6)c5)nc4c3)ccc2o1` [US11547697, Compound 150], for which the IC50 in assay [1], in assay [2] and in assay [3] was over 10 µM each time.
For the compound `CN1CCN(C(=O)c2cnc3ccc(-c4ccc5oc(N)nc5c4)cc3n2)CC1` [US11547697, Compound 157], the IC50 in assay [1], in assay [2] and in assay [3] was over 10 µM in each case.
In the case of `Nc1nc2cc(-c3ccc4ncc(C(=O)N5CCOCC5)nc4c3)ccc2o1` [US11547697, Compound 158], the 50% inhibitory concentration (IC50) in assay [1], in assay [2] and in assay [3] was over 10 µM each time.
In the case of `Nc1nc2cc(-c3ccc4ncc(-c5ccc(N6CCOCC6)nc5)nc4c3)ccc2o1` [US11547697, Compound 167], the IC50 in assay [1], in assay [2] and in assay [3] was over 10 µM in each case.
Consider `Nc1nc2cc(-c3ccc4ncc(-c5ccccc5)nc4c3)ccc2o1` [US11547697, Compound 180], for which the IC50 in assay [1], in assay [2] and in assay [3] was over 10 µM throughout.
For the compound `Cc1ncccc1-c1cnc2ccc(-c3ccc4oc(N)nc4c3)cc2n1` [US11547697, Compound 185], the half-maximal inhibitory concentration (IC50) in assay [1], in assay [2] and in assay [3] was over 10 µM each time.
As to `Nc1nc2cc(-c3ccc4ncn(C5CCC5)c(=O)c4c3)ccc2o1` [US11547697, Compound 205], the IC50 in assay [1], in assay [2] and in assay [3] was over 10 µM each time.
Take `Nc1ncc(-c2cnc3ccc(-c4ccc5oc(N)nc5c4)cc3n2)cn1` [US11547697, Compound 210]: the IC50 in assay [1], in assay [2] and in assay [3] was over 10 µM throughout.
Consider `CCN(CC)CCn1cnc2ccc(-c3ccc4oc(N)nc4c3)cc2c1=O` [US11547697, Compound 224], for which the concentration for half-maximal inhibition (IC50) in assay [1], in assay [2] and in assay [3] was over 10 µM throughout.
With `Nc1nc2cc(-c3ccc4ncn(C5CCCC5)c(=O)c4c3)ccc2o1` [US11547697, Compound 256], the IC50 in assay [1], in assay [2] and in assay [3] was over 10 µM each time.
With `NC(=O)[C@@H]1CCCN1c1cnc2ccc(-c3ccc4oc(N)nc4c3)cc2n1` [US11547697, Compound 257], the IC50 in assay [1], in assay [2] and in assay [3] was over 10 µM in each case.
For the compound `CN1CCN(CCn2cnc3ccc(-c4ccc5oc(N)nc5c4)cc3c2=O)CC1` [US11547697, Compound 280], the IC50 in assay [1], in assay [2] and in assay [3] was over 10 µM in each case.
On to `CCN(CC)CCCn1cnc2ccc(-c3ccc4oc(N)nc4c3)cc2c1=O` [US11547697, Compound 281], for which the IC50 in assay [1] and in assay [3] was over 10 µM each time.
Turning to `Nc1nc2cc(-c3ccc4ncn(CCCN5CCOCC5)c(=O)c4c3)ccc2o1` [US11547697, Compound 290], the half-maximal inhibitory concentration (IC50) in assay [1], in assay [2] and in assay [3] was over 10 µM throughout.
For the compound `CN1CCN(CCCn2cnc3ccc(-c4ccc5oc(N)nc5c4)cc3c2=O)CC1` [US11547697, Compound 291], the concentration for half-maximal inhibition (IC50) in assay [1], in assay [2] and in assay [3] was over 10 µM throughout.
Turning to `CN(C)CCn1cnc2ccc(-c3ccc4oc(N)nc4c3)cc2c1=O` [US11547697, Compound 292], the 50% inhibitory concentration (IC50) in assay [1], in assay [2] and in assay [3] was over 10 µM throughout.
As to `CN1CCN(C2CN(C(=O)c3cnc4ccc(-c5ccc6oc(N)nc6c5)cn34)C2)CC1` [US11547697, Compound 303], the half-maximal inhibitory concentration (IC50) in assay [1] and in assay [3] was over 10 µM in each case.
`CN(C)C1CCN(C(=O)c2cnc3ccc(-c4ccc5oc(N)nc5c4)cn23)CC1` [US11547697, Compound 304]: the IC50 in assay [1], in assay [2] and in assay [3] was over 10 µM in each case.
As for `Nc1nc2ccc(-c3ccc4nnc(C(=O)N5CCCC5)n4c3)cc2o1` [US11547697, Compound 305], the IC50 in assay [1], in assay [2] and in assay [3] was over 10 µM in each case.
For the compound `Cc1nc(NC(=O)N2CCC[C@H]2C(N)=O)sc1-c1ccc2oc(N)nc2c1` [US11547697, Compound 311], the concentration for half-maximal inhibition (IC50) in assay [1], in assay [2] and in assay [3] was over 10 µM each time.
Regarding `COC(=O)N1CCC(n2ncc3c(N4CCOCC4)nc(-c4ccc5oc(N)nc5c4)nc32)CC1` [US11547697, Compound 330], the IC50 in assay [2] and in assay [3] was over 10 µM throughout.
Consider `Cc1cc2oc(N)nc2cc1-c1ccc2ncc(N3CCN[C@@H](C)C3)nc2c1` [US11547697, Compound 351], for which the IC50 in assay [2] and in assay [3] was over 10 µM throughout.
On to `Cc1cc2oc(N)nc2cc1-c1ccc2ncc(N3CC(N4CCOCC4)C3)nc2c1` [US11547697, Compound 353], for which the IC50 in assay [1], in assay [2] and in assay [3] was over 10 µM each time.
As for `Nc1nc2cc(-c3ccc4ncc(C(=O)N5CCOCC5)n4c3)c(Cl)cc2o1` [US11547697, Compound 370], the half-maximal inhibitory concentration (IC50) in assay [1], in assay [2] and in assay [3] was over 10 µM throughout.
Consider `Nc1nc2cc(-c3ccc4ncc(N5CC(N6CCOCC6)C5)nc4c3)c(Cl)cc2o1` [US11547697, Compound 371], for which the half-inhibitory concentration (IC50) in assay [2] and in assay [3] was over 10 µM in each case.
For `Cc1c(-c2ccc3oc(N)nc3c2)ccc2ncc(N3CC(N4CCOCC4)C3)nc12` [US11547697, Compound 383], the half-inhibitory concentration (IC50) in assay [1], in assay [2] and in assay [3] was over 10 µM in each case.
For `CN1CCC(c2cnc3ccc(-c4ccc5oc(N)nc5c4)cc3n2)CC1` [US11547697, Compound 385], the IC50 in assay [2] and in assay [3] was over 10 µM each time.
For the compound `CCN1CCN(c2cnc3ccc(-c4ccc5oc(N)nc5c4)cc3n2)C(=O)C1` [US11547697, Compound 391], the IC50 in assay [1], in assay [2] and in assay [3] was over 10 µM in each case.
For the compound `Nc1nc2cc(-c3ccc4ncc(N5CCN(CC6CC6)CC5=O)nc4c3)ccc2o1` [US11547697, Compound 393], the IC50 in assay [1], in assay [2] and in assay [3] was over 10 µM each time.
On to `CNc1nc2cc(-c3ccc4ncc(C(=O)N5CCOCC5)n4c3)ccc2o1` [US11547697, Compound 406], for which the concentration for half-maximal inhibition (IC50) in assay [2] and in assay [3] was over 10 µM throughout.
On to `CN1CC(n2cnc3ccc(-c4ccc5oc(N)nc5c4)cc3c2=O)C1` [US11547697, Compound 528], for which the IC50 in assay [2] and in assay [3] was over 10 µM in each case.
